Laboratory results from patent publication US12660819B2, “Herbicidal derivatives” (SYNGENTA CROP PROTECTION AG, priority 2020, dated 2026).

Key:
Format in all cases: in vivo
[1] = tested on: Amaranthus retoflexus (AMARE); assay: Post-emergence Test (glasshouse, percentage damage to the plant); details: post-emergence spray, 1000 g/ha unless otherwise stated, evaluated after 13 days
Method in brief: (§1)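 Seeds sown in pots in glasshouse (24/16 °C day/night, 14 h light, 65% humidity), then sprayed with compound at 1000 g/ha unless stated, from acetone/water 50:50 with 0.5% Tween 20. Damage assessed 13 days later on five-point scale (1=0–20% to 5=81–100%).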

[2] = tested on: Echinochloa crus-galli (ECHCG); assay: as above; details: post-emergence spray, 1000 g/ha unless otherwise stated, evaluated after 13 days
Method in brief: as §1

[3] = tested on: Ipomoea hederacea (IPOHE); assay: as above; details: post-emergence spray, 1000 g/ha unless otherwise stated, evaluated after 13 days
Method in brief: (§2)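 Scored 13 days after spraying as percentage plant damage in five bands (5=81–100%, 4=61–80%, 3=41–60%, 2=21–40%, 1=0–20%). Spray at 1000 g/ha unless stated, in acetone/water 50:50 plus 0.5% Tween 20, onto sown glasshouse pots (24/16 °C, 14 h light, 65% humidity).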

Lolium perenne (LOLPE) [4] = assay: as above; details: post-emergence spray, 1000 g/ha unless otherwise stated, evaluated after 13 days
Method in brief: as §1

Setaria faberi (SETFA) [5] = assay: as above; details: post-emergence spray, 1000 g/ha unless otherwise stated, evaluated after 13 days
Method in brief: as §2

Solanum nigrum (SOLNI) [6] = assay: as above; details: post-emergence spray, 1000 g/ha unless otherwise stated, evaluated after 13 days
Method in brief: as §1

[7] = tested on: Amaranthus retoflexus (AMARE); assay: Pre-emergence Test (glasshouse, percentage damage to the plant); details: 1000 g/ha unless otherwise stated, five-point scale
Solanum nigrum (SOLNI) [8] = assay: as above; details: 1000 g/ha unless otherwise stated, five-point scale
Setaria faberi (SETFA) [9] = assay: as above; details: 1000 g/ha unless otherwise stated, five-point scale
Lolium perenne (LOLPE) [10] = assay: as above; details: 1000 g/ha unless otherwise stated, five-point scale
[11] = tested on: Echinochloa crus-galli (ECHCG); assay: as above; details: 1000 g/ha unless otherwise stated, five-point scale
[12] = tested on: Ipomoea hederacea (IPOHE); assay: as above; details: 1000 g/ha unless otherwise stated, five-point scale

| Structure (SMILES) | Post-emergence Test AMARE, percentage damage to the plant (five-point scale) [1] | Post-emergence Test ECHCG, percentage damage to the plant (five-point scale) [2] | Post-emergence Test IPOHE, percentage damage to the plant (five-point scale) [3] | Post-emergence Test LOLPE, percentage damage to the plant (five-point scale) (Lolium perenne (LOLPE) [4]) | Post-emergence Test SETFA, percentage damage to the plant (five-point scale) (Setaria faberi (SETFA) [5]) | Post-emergence Test SOLNI, percentage damage to the plant (five-point scale) (Solanum nigrum (SOLNI) [6]) | percentage damage to the plant, AMARE [7] | percentage damage to the plant, SOLNI (Solanum nigrum (SOLNI) [8]) | percentage damage to the plant, SETFA (Setaria faberi (SETFA) [9]) | percentage damage to the plant, LOLPE (Lolium perenne (LOLPE) [10]) | percentage damage to the plant, ECHCG [11] | percentage damage to the plant, IPOHE [12] |
| --- | --- | --- | --- | --- | --- | --- | --- | --- | --- | --- | --- | --- |
| CCn1c(C)c(-c2cccnc2F)c(=O)c(C(=O)O)c1-c1ccc(Cl)c(Cl)c1 [Compound 6, 2-(3,4-dichlorophenyl)-1-ethyl-5-(2-fluoro-3-pyridyl)-6-methyl-4-oxo-pyridine-3-carboxylic acid] | 4 (4=61-80%) | 4 (4=61-80%) | 1 (1=0-20%) | 4 (4=61-80%) | 4 (4=61-80%) | 3 (3=41-60%) | 4 (4=61-80%) | 3 (3=41-60%) | 5 (5=81-100%) | 4 (4=61-80%) | 4 (4=61-80%) | 1 (1=0-20%) |
| CCn1c(C)c(-c2ncco2)c(=O)c(C(=O)OC)c1-c1ccc(Cl)c(Cl)c1 [Compound 38, methyl 2-(3,4-dichlorophenyl)-1-ethyl-6-methyl-5-oxazol-2-yl-4-oxo-pyridine-3-carboxylate] | 1 (1=0-20%) | 1 (1=0-20%) | 1 (1=0-20%) | 1 (1=0-20%) | 1 (1=0-20%) | 1 (1=0-20%) | 1 (1=0-20%) | 1 (1=0-20%) | 1 (1=0-20%) | 1 (1=0-20%) | 1 (1=0-20%) | 1 (1=0-20%) |
| CCn1c(C)c(-c2ccnc(F)c2)c(=O)c(C(=O)O)c1-c1ccc(Cl)c(Cl)c1 [Compound 17, 2-(3,4-dichlorophenyl)-1-ethyl-5-(2-fluoro-4-pyridyl)-6-methyl-4-oxo-pyridine-3-carboxylic acid] | 4 (4=61-80%) | 4 (4=61-80%) | 4 (4=61-80%) | 4 (4=61-80%) | 4 (4=61-80%) | 3 (3=41-60%) | 1 (1=0-20%) | 3 (3=41-60%) | 5 (5=81-100%) | 3 (3=41-60%) | 3 (3=41-60%) | 1 (1=0-20%) |
| CCn1c(C)c(-c2cncn2C)c(=O)c(C(=O)OC)c1-c1ccc(Cl)c(Cl)c1 [Compound 39, methyl 2-(3,4-dichlorophenyl)-1-ethyl-6-methyl-5-(3-methylimidazol-4-yl)-4-oxo-pyridine-3-carboxylate] | 1 (1=0-20%) | 1 (1=0-20%) | 1 (1=0-20%) | 1 (1=0-20%) | 1 (1=0-20%) | 1 (1=0-20%) | 1 (1=0-20%) | 1 (1=0-20%) | 1 (1=0-20%) | 1 (1=0-20%) | 1 (1=0-20%) | 1 (1=0-20%) |
| CCn1c(C)c(-c2cccc(OC(F)(F)F)c2)c(=O)c(C(=O)O)c1-c1ccc(Cl)c(Cl)c1 [Compound 16, 2-(3,4-dichlorophenyl)-1-ethyl-6-methyl-4-oxo-5-[3-(trifluoromethoxy)phenyl]pyridine-3-carboxylic acid] | 4 (4=61-80%) | 5 (5=81-100%) | 4 (4=61-80%) | 1 (1=0-20%) | 5 (5=81-100%) | 4 (4=61-80%) | 1 (1=0-20%) | 1 (1=0-20%) | 3 (3=41-60%) | 1 (1=0-20%) | 4 (4=61-80%) | 2 (2=21-40%) |
| CCn1c(C)c(-c2ccccc2)c(=O)c(C(=O)O)c1-c1ccc(Cl)c(Cl)c1 [Compound 24, 2-(3,4-dichlorophenyl)-1-ethyl-6-methyl-4-oxo-5-phenyl-pyridine-3-carboxylic acid] | 4 (4=61-80%) | 3 (3=41-60%) | 4 (4=61-80%) | 4 (4=61-80%) | 4 (4=61-80%) | 5 (5=81-100%) | 1 (1=0-20%) | 5 (5=81-100%) | 1 (1=0-20%) | 2 (2=21-40%) | 2 (2=21-40%) | 4 (4=61-80%) |
| CCn1c(C)c(-c2ccoc2)c(=O)c(C(=O)O)c1-c1ccc(Cl)c(Cl)c1 [Compound 33, 2-(3,4-dichlorophenyl)-1-ethyl-5-(3-furyl)-6-methyl-4-oxo-pyridine-3-carboxylic acid] | 3 (3=41-60%) | 2 (2=21-40%) | 3 (3=41-60%) | 2 (2=21-40%) | 1 (1=0-20%) | 3 (3=41-60%) | 1 (1=0-20%) | 1 (1=0-20%) | 1 (1=0-20%) | 1 (1=0-20%) | 1 (1=0-20%) | 2 (2=21-40%) |
| CCn1c(C)c(-c2ccc(Cl)c(F)c2)c(=O)c(C(=O)O)c1-c1ccc(Cl)c(Cl)c1 [Compound 9, 5-(4-chloro-3-fluoro-phenyl)-2-(3,4-dichlorophenyl)-1-ethyl-6-methyl-4-oxo-pyridine-3-carboxylic acid] | 5 (5=81-100%) | 5 (5=81-100%) | 3 (3=41-60%) | 1 (1=0-20%) | 5 (5=81-100%) | 3 (3=41-60%) | 5 (5=81-100%) | 3 (3=41-60%) | 4 (4=61-80%) | 1 (1=0-20%) | 5 (5=81-100%) | 1 (1=0-20%) |
